Test results reported in US20050271736A1, “Pyrithione compound and microcapsule using the same” (Fuji Photo Film Co., Ltd., priority 2004, published 2005).

Assay: Measurement of photo-decomposability of the compound in ethyl acetate solution (absorbance before/after UV exposure)
Assay type: physicochemical
Conditions: 5.0×10^−5 mol/L in ethyl acetate
Protocol: The absorbance thereof was measured with an absorption photometer (Multichannel Detector PMA 11, trade name, manufactured by Hamamatsu Photonics K.K.). […] After this solution was exposed for 20 seconds by means of a fluorescent lamp of 23 watts having the central wavelength of light emission at 365 nm, which was placed at a distance of 45 mm, the absorbance thereof was measured in the same manner as the above.

Q: What does the source list for OCCCCCCOc1cccn(OCCCCCCO)c1=S [I-1]?
A: absorbance at 370 nm before exposure (1-cm quartz cell, before exposure): 0.64; absorbance at 370 nm after exposure (exposed 20 seconds, 23 W fluorescent lamp, central wavelength 365 nm, distance 45 mm): 0.15
